Reference: patent US8198215B2, “Methods for protecting seeds” (Sygenta Crop Protection LLC, priority 2005, dated 2012)

Tests used:
Type in all cases: in vivo
Ustilago nuda [1] = test: Example B-5: comparison test with prior art compound B, activity against Ustilago nuda on barley; conditions: 10 g active ingredient per 100 kg seed; for % Control / % infected heads: barley seed treatment; for % Control: relative to untreated; for % infected heads: untreated 13
Description: (§1) After application of the active ingredient formulated as a flowable concentrate for seed treatment onto U. nuda-infected seeds of winterbarley the seeds are sown in trays filled with field soil. The trays are transferred to a growth room and kept there for 2 days at 20° C. and then for 2 weeks at 2° C. After this period the trial is transferred to a greenhouse where a temperature of 15° C. and a 14 hr light period is provided until flowering. The following assessments are made: number of infected heads. Each number is determined for 200 seeds per treatment (2 replicates a 100 seeds). The activity against Ustilago nuda on barley of the racemic compound of formula Ia according to the invention was compared with racemic compound B, which is described as compound no. 2.69 on pages 7, table 2, and page 16, table 7, of WO 03/074491. The method used to compare the activity is described under example B-4 above.

Ustilago nuda [2] = test: Example B-6: comparison test with prior art compound C, activity against Ustilago nuda on barley; conditions: 10 g active ingredient per 100 kg seed; for % Control / % infected heads: barley seed treatment; for % Control: relative to untreated; for % infected heads: untreated 13
Description: as §1, with “C (trans/cis-ratio: 10:1),” for “B,”, “2.40” for “2.69”, “pages 6 and” for “pages”, “2,” for “2, and page 16, table 7,”

Pyrenophora graminea = test: Example B-3: activity against Pyrenophora graminea on barley, seed treatment; conditions: P. graminea-infected winterbarley seeds, 10 g/100 kg seed
Description: After application of the active ingredient formulated as a flowable concentrate for seed treatment onto P. graminea-infected seeds of winterbarley the seeds are sown in trays filled with field soil. The trays are kept in a growth room for 3 weeks at 4° C. After this period the trial is transferred to a greenhouse where a temperature of 12° C. and a 14 hr light period is provided. The following assessments are made: number of infected plants. Each number is determined for 200 seeds per treatment (2 replicates a 100 seeds).

Ustilago nuda [3] = test: Example B-4: activity against Ustilago nuda on barley, seed treatment; conditions: U. nuda-infected winterbarley seeds; for % Control: relative to untreated; for % infected heads: untreated 23.1
Description: After application of the active ingredient formulated as a flowable concentrate for seed treatment onto U. nuda-infected seeds of winterbarley the seeds are sown in trays filled with field soil. The trays are transferred to a growth room and kept there for 2 days at 20° C. and then for 2 weeks at 2° C. After this period the trial is transferred to a greenhouse where a temperature of 15° C. and a 14 hr light period is provided until flowering. The following assessments are made: number of infected heads. Each number is determined for 200 seeds per treatment (2 replicates a 100 seeds).

Gäumannomyces graminis = test: Example B-1: activity against Gäumannomyces graminis on wheat, seed treatment; conditions: winterwheat seed treatment; for % root browning: inoculated field soil, 5 weeks at 17° C., untreated 50; for Control: relative to untreated
Description: After application of the active ingredient formulated as a flowable concentrate for seed treatment onto seeds of winterwheat the seeds are sown in trays filled with field soil. The field soil has been inoculated artificially before sowing with Gäumannomyces graminis by thoroughly mixing mycelium and soil. The trial is kept in a growth room for 5 weeks at 17° C. and a 14 hr light period. The following assessments are made: % root browning. Each number is determined for 30 seeds per treatment (3 replicates a 10 seeds).

Microdochium nivale = test: Example B-2: activity against Microdochium nivale on wheat, seed treatment; conditions: M. nivale-infected winterwheat seeds, 10 g/100 kg seed
Description: After application of the active ingredient formulated as a flowable concentrate for seed treatment onto M. nivale-infected seeds of winterwheat the seeds are sown in trays filled with planting soil. The trial is kept for 4 weeks in a growth room at 4° C. and darkness. Then the temperature is increased to 15° C. and a 12 hr light period is provided. After development of the primary leaf plants are kept at 10° C. and high humidity until the trial is finished. The following assessments are made: number of infected plants. Each number is determined for 100 seeds per treatment (2 replicates a 50 seeds).

Cn1cc(C(=O)Nc2ccccc2[C@@H]2C[C@H]2c2ccc(Cl)cc2)c(C(F)F)n1 (racemic) [Racemic compound B, reference compound]
% Control (Ustilago nuda [1]): 9% | % infected heads (Ustilago nuda [1]): 11.9%

Cn1cc(C(=O)Nc2ccccc2C2CC2C2CCCC2)c(C(F)F)n1 (racemic) [Racemic compound C, reference compound]
% Control (Ustilago nuda [2]): 11% | % infected heads (Ustilago nuda [2]): 11.6%

Cn1cc(C(=O)Nc2ccccc2[C@@H]2C[C@H]2C2CC2)c(C(F)F)n1 (racemic) [Racemic compound of formula Ia]
fungicidal action against Ustilago nuda on barley compared with racemic compound C (Ustilago nuda [2]): substantially better fungicidal action | % Control (Ustilago nuda [2]): 100% | % infected heads (Ustilago nuda [2]): 0% | Control (Pyrenophora graminea; relative to untreated): 98.1 | % infected plants (Pyrenophora graminea; untreated 54): 1% | % Control (Ustilago nuda [3]; 2.5 g/100 kg seed): 100% | % infected heads (Ustilago nuda [3]; 2.5 g/100 kg seed): 0% | % Control (Ustilago nuda [3]; 5 g/100 kg seed): 100% | % infected heads (Ustilago nuda [3]; 5 g/100 kg seed): 0% | % root browning (Gäumannomyces graminis; 10 g/100 kg seed): 28% | Control (Gäumannomyces graminis; 10 g/100 kg seed): 44 | % root browning (Gäumannomyces graminis; 33 g/100 kg seed): 20% | Control (Gäumannomyces graminis; 33 g/100 kg seed): 60 | Control (Microdochium nivale; relative to untreated): 86.8 | % infected plants (Microdochium nivale; untreated 38): 5% | fungicidal action against Ustilago nuda on barley compared with racemic compound B (Ustilago nuda [1]): substantially better fungicidal action | % Control (Ustilago nuda [1]): 100% | % infected heads (Ustilago nuda [1]): 0%
